# Experiments:
# zebrafish = experiment: Toxicity to zebrafish, semi-static method, 96 hours; conditions: 8 h
# Procedure: Test agents: avermectin, milbemycin, ivermectin, tenvermectin A and tenvermectin B were all from Zhejiang Hisun Pharmaceutical Co., Ltd. The samples were formulated into 50 mg/ml mother liquors with DMF.
# Test fish and water: zebrafish (Brachydanio rerio) was purchased from Zhejiang Academy of Agricultural Sciences, with the same size, average body length of 2-3 cm and average body weight of 0.3 g. The zebrafish was domesticated for 7 days indoors before the test. […] Feeding was stopped 1 day before the test and the fish were not fed during the test. The test water was tap water with residual chlorine removed by exposure to the sun for more than 24 hours, and the pH thereof was 6.8.
# Test methods: semi-static method. Three level differences were provided for each sample: 0.5 ppm, 1.0 ppm and 1.5 ppm, and three parallel groups were provided for each level difference, 10 zebrafish were raised for each group, and blank controls (one group without agents and one group with only solvent) were provided. The corresponding volume of mother liquor was taken according to the concentration as required for each sample, and the volume of each sample was adjusted to 150 μl with DMF, and then each sample was added to the test group (containing 1.6 L of water). The room temperature was controlled at 22±2° C. for 96 hours, and the water was changed every 24 hours and the samples were re-added. The fish mortality rate was recorded for the first 8 hours and at 24, 48, 72 and 96 hours, and the dead fish were removed in time.
# [1] = tested on: allogynogenetic crucian carp; experiment: Toxicity to allogynogenetic crucian carp, semi-static method, 96 hours; type: in vivo
# Excerpt: Test fish and water: allogynogenetic crucian carp was purchased from Taowang Farm in Jiaojiang District, Taizhou City, with a body length of (9.60±0.52) cm and a body weight of (28.22±3.44) g. The healthy and vigorous fish with the same size were selected and temporarily raised in an indoor aquarium. They were domesticated for 7 days indoors before the test. The natural mortality rate was zero.
# 99.4% Tenvermectin A (the mass content of tenvermectin B was 0.02%) (Zhejiang Hisun Pharmaceutical Co., Ltd.);
# Tenvermectin (the mass ratio of tenvermectin A/tenvermectin B was 95/5) (Zhejiang Hisun Pharmaceutical Co., Ltd.);
# Tenvermectin (the mass ratio of tenvermectin A/tenvermectin B was 90/10) (Zhejiang Hisun Pharmaceutical Co., Ltd.);
# Tenvermectin (the mass ratio of tenvermectin A/tenvermectin B was 85/15) (Zhejiang Hisun Pharmaceutical Co., Ltd.);
# 99.1% Tenvermectin B (the mass content of tenvermectin A was 0.51%) (Zhejiang Hisun Pharmaceutical Co., Ltd.);
# 92% Avermectin (Zhejiang Qianjiang Biochemical Co., Ltd.);
# 96% Ivermectin (Zhejiang Hisun Pharmaceutical Co., Ltd.);
# 90% Methylamino avermectin benzoate (Emamectin benzoate) (Zhejiang Shenghua Biok Biotechnology Co., Ltd.).
# Method: semi-static method. […]
# [2] = tested on: swine nematode (nematodes in the digestive tract); experiment: Repelling swine nematode in naturally infected pigs (fecal egg count, McMaster's method); type: in vivo; conditions: 1% injection 0.2 mg/kg bw s.c.
# Excerpt: (§1) Test agents: 1% ivermectin injection, 1% tenvermectin A injection, and 1% tenvermectin B injection as obtained in Example 1.
# (§2) Test animals and grouping: pigs cultured in the same farm were selected, and 40 pigs naturally infected with nematodes in the digestive tract were selected for testing through fecal examination. The average weight of the test pigs was 30-50 kg. Forty pigs were randomly divided into 4 groups, 10 for each group. The first group was the ivermectin control group, the second group was the tenvermectin A group, and the third group was the tenvermectin B group. All the medicated groups were injected subcutaneously in the neck according to 0.2 mg/kg·bw. The forth group was a blank group and was not administered.
# (§3) 1) The feces of the pigs in each group were collected and examined one by one a day before administration, and worm eggs were counted by the McMaster's method. The number of eggs per gram of feces (EPG) was counted and the condition of Haematopinus on the body surface was observed.
# (§4) 2) 1, 2, 3 and 4 weeks after administration, the feces of the pigs in each group were examined by the McMaster's method, and the EPG was counted and the changes of Haematopinus on the body surface were observed.
# 3) The negative conversion rates and egg reduction rates of the test pigs were calculated by a conventional method to assess the efficacy of repelling swine nematode.
# swine Haematopinus = experiment: Killing effect on swine Haematopinus on the body surface; type: in vivo; conditions: pigs, 1% injection 0.2 mg/kg bw s.c., until the 7th day and in the following 3 weeks
# Excerpt: as §1, §2, §3, §4
# 4) The killing effects of swine Haematopinus of the agents were assessed according to the survival of swine Haematopinus on the 7th day after administration.
# [3] = tested on: digestive tract nematodes; experiment: Repelling nematode in digestive track of sheep (fecal egg count); type: in vivo
# Excerpt: as §1
# Test animals and grouping: sheep grazed under the same condition were selected, and 80 sheep of 0.8-2.0 years old naturally infected with digestive tract nematodes were selected through fecal examination. The average weight of the test sheep was 30 kg. The 80 sheep were randomly divided into 4 groups, 20 heads for each group. The first group was the ivermectin control group, the second group was the tenvermectin A group, and the third group was the tenvermectin B group. All the medicated groups were injected subcutaneously in the neck according to 0.2 mg/kg·bw. The fourth group was a blank group and was not medicated.
# 1) The feces of the sheep in each group were collected and examined one by one a day before administration, and the worm eggs were counted by the McMaster's method, and the number of eggs per gram of feces (EPG) was counted.
# 2) On the 9th day after administration, the sheep of each group were subjected to a fecal examination by McMaster's method, and EPG was counted.
# 3) The egg negative conversion rates and egg reduction rates were calculated according to a conventional method to assess the efficacy.
# Sarcoptes mites = experiment: Treatment of Sarcoptes mites of sheep (skin scrapings, live mites); type: in vivo; conditions: 1% injection 0.2 mg/kg bw s.c.; for Negative conversion number: sheep (10 per group); for Negative conversion rate (%): sheep
# Excerpt: Test agents: 1% ivermectin injection, 1% tenvermectin A injection and 1% tenvermectin B injection as obtained in Example 1.
# Test animals and grouping: sheep grazed under the same conditions were selected. Upon parasitological examination, 40 sheep which had been infected with sheep Sarcoptes mites were selected. The 40 sheep were randomly divided into 4 groups, 10 heads for each group. The first group was the ivermectin control group, the second group was the tenvermectin A group, and the third group was the tenvermectin B group. All the medicated groups were injected subcutaneously in the neck according to 0.2 mg/kg·bw. The fourth group was a blank group and was not medicated.
# Test methods: the changes of clinical symptoms were observed. The skin of sheep was scratched using a surgical blade with glycerin at the junction of the affected part and the healthy skin of the diseased sheep until the skin slightly bled. The skin scraps were taken then were placed in a dish and brought back to the laboratory. Then the skin scraps were placed on a slide, a drop of aqueous solution of 50% glycerol was added, and a cover slip was covered, and then the skin scraps were checked under a low magnification microscope. It was confirmed to be positive if live Sarcoptes mites were observed. Samples were taken before administration and at 1, 2, 3 and 4 weeks after administration to be examined. The samples were examined under a microscope, based on whether live mites were observed, the samples can be determined to be positive as long as one live mite was observed. Changes of clinical symptoms were observed as references.
# [4] = allogynogenetic crucian carp, 0.5 ppm, 8 h
# [5] = allogynogenetic crucian carp, 1.0 ppm, 8 h
# [6] = allogynogenetic crucian carp, 2.0 ppm, 8 h
# [7] = sheep, 1% injection 0.2 mg/kg bw s.c., 9th day after administration
molecule,measurement,setting,value
"CC[C@H](C)[C@H]1O[C@]2(C=C[C@@H]1C)C[C@@H]1C[C@@H](C/C=C(\C)[C@@H](O[C@H]3C[C@H](OC)[C@@H](O[C@H]4C[C@H](OC)[C@@H](O)[C@H](C)O4)[C@H](C)O3)[C@@H](C)/C=C/C=C3\CO[C@@H]4[C@H](O)C(C)=C[C@@H](C(=O)O1)[C@]34O)O2 [Avermectin, reference compound]",Survival condition (survival rates/%),zebrafish; 0.5 ppm,0%
same,Survival condition (survival rates/%),zebrafish; 1.0 ppm,0%
same,Survival condition (survival rates/%),zebrafish; 1.5 ppm,0%
same,Survival condition (survival rates/%),[1]; [4],0%
same,Survival condition (survival rates/%),[1]; [5],0%
same,Survival condition (survival rates/%),[1]; [6],0%
"CC[C@H](C)C1O[C@]2(C=C[C@@H]1C)C[C@@H]1C[C@@H](C/C=C(\C)[C@@H](O[C@H]3C[C@H](OC)[C@@H](O[C@H]4C[C@H](OC)[C@H](NC)[C@H](C)O4)[C@H](C)O3)[C@@H](C)/C=C/C=C3\CO[C@@H]4[C@H](O)C(C)=C[C@@H](C(=O)O1)[C@]34O)O2.O=C(O)c1ccccc1 (some centres unmarked) [Methylamino avermectin benzoate, reference compound]",Survival condition (survival rates/%),zebrafish; 0.5 ppm,0%
same,Survival condition (survival rates/%),zebrafish; 1.0 ppm,0%
same,Survival condition (survival rates/%),zebrafish; 1.5 ppm,0%
same,Survival condition (survival rates/%),[1]; [4],0%
same,Survival condition (survival rates/%),[1]; [5],0%
same,Survival condition (survival rates/%),[1]; [6],0%
Ivermectin [reference compound],Egg reduction rate (%),[2]; 1st week after administration,76.2%
same,Negative conversion rate (%),[2]; 1st week after administration,70%
same,Egg reduction rate (%),[2]; 2nd week after administration,91.2%
same,Negative conversion rate (%),[2]; 2nd week after administration,90%
same,Egg reduction rate (%),[2]; 3rd week after administration,100%
same,Negative conversion rate (%),[2]; 3rd week after administration,80%
same,Egg reduction rate (%),[2]; 4th week after administration,66.2%
same,Negative conversion rate (%),[2]; 4th week after administration,60%
same,active Haematopinus observed on the body surface,swine Haematopinus,no active Haematopinus was found
same,Number of sheep negatively conversed,"[3]; sheep (20 per group), 1% injection 0.2 mg/kg bw s.c., 9th day after administration",20
same,Egg reduction rate (%),[3]; [7],100%
same,Negative conversion rate (%),[3]; [7],100%
same,EPG after administration,"[3]; sheep, eggs per gram of feces, 0.2 mg/kg bw s.c., 9th day after administration",0
same,EPG before administration,"[3]; sheep, eggs per gram of feces, baseline a day before administration",9100
same,Negative conversion number,Sarcoptes mites; 1st week,7
same,Negative conversion number,Sarcoptes mites; 2nd week,9
same,Negative conversion number,Sarcoptes mites; 3rd week,10
same,Negative conversion number,Sarcoptes mites; 4th week,10
same,Negative conversion rate (%),Sarcoptes mites; 1st week,70%
same,Negative conversion rate (%),Sarcoptes mites; 2nd week,90%
same,Negative conversion rate (%),Sarcoptes mites; 3rd week,100%
same,Negative conversion rate (%),Sarcoptes mites; 4th week,100%
same,Survival condition (survival rates/%),zebrafish; 0.5 ppm,0%
same,Survival condition (survival rates/%),zebrafish; 1.0 ppm,0%
same,Survival condition (survival rates/%),zebrafish; 1.5 ppm,0%
same,Survival condition (survival rates/%),[1]; [4],0%
same,Survival condition (survival rates/%),[1]; [5],0%
same,Survival condition (survival rates/%),[1]; [6],0%
Milbemycin [reference compound],Survival condition (survival rates/%),zebrafish; 0.5 ppm,0%
same,Survival condition (survival rates/%),zebrafish; 1.0 ppm,0%
same,Survival condition (survival rates/%),zebrafish; 1.5 ppm,0%
same,Survival condition (survival rates/%),[1]; in vivo,0%
